From ChEMBL document CHEMBL5291721, “A preclinical secondary pharmacology resource illuminates target-adverse drug reaction associations of marketed drugs” (Nat Commun, 2023)

Tests used:
[1] = biological target: Sodium-dependent serotonin transporter (Homo sapiens, UniProt P31645)
[2] = biological target: T1, Muscarinic acetylcholine receptor M2 (Homo sapiens, UniProt P08172); format: functional, cell-based
T1 sequence (P08172 whole entry): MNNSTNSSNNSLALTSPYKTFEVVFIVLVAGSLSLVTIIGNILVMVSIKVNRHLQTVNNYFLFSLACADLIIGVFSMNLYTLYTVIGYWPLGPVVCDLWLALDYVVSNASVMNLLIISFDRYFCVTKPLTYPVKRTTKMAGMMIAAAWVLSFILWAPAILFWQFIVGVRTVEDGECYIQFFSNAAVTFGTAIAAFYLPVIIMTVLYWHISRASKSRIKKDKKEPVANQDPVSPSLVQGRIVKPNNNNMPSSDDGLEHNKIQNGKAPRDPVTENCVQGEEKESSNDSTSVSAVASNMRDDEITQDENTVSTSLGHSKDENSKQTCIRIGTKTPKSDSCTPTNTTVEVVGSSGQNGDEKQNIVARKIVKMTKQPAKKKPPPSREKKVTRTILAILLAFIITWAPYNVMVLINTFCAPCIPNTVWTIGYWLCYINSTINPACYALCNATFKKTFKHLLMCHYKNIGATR

[3] = biological target: 3',5'-cyclic-AMP phosphodiesterase 4D (Homo sapiens, UniProt Q08499); format: functional
[4] = biological target: T2, 5-hydroxytryptamine receptor 1A (Homo sapiens, UniProt P08908); format: functional, cell-based
T2 sequence (P08908 whole entry): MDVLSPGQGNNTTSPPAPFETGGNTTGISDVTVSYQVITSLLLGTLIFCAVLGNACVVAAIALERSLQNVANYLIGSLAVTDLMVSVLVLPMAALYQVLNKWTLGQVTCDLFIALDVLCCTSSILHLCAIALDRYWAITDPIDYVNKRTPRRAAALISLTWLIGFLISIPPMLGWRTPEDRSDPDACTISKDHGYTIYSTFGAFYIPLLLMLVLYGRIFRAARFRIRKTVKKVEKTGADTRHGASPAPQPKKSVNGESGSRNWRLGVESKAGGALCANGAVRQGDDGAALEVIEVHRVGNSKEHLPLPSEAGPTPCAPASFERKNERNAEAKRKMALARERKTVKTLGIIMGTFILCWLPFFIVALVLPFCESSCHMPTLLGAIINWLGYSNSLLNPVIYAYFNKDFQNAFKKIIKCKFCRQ

[5] = biological target: Beta-2 adrenergic receptor (Homo sapiens, UniProt P07550); format: functional, cell-based
Vasopressin V1a receptor = Vasopressin V1a receptor (Homo sapiens, UniProt P37288)
Adenosine receptor A1 = biological target: T3, Adenosine receptor A1 (Homo sapiens, UniProt P30542)
T3 sequence (P30542 whole entry): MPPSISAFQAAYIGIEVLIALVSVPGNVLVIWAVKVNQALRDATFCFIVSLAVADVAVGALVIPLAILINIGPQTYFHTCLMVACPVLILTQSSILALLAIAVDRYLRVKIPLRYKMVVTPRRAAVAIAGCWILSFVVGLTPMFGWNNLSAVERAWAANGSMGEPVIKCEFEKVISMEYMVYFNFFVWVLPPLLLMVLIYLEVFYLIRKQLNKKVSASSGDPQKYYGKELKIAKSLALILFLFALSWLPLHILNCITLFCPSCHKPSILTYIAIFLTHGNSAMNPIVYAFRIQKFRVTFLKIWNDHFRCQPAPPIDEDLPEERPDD

[6] = biological target: T4, 5-hydroxytryptamine receptor 3A (Homo sapiens, UniProt P46098); format: functional
T4 sequence (P46098 whole entry): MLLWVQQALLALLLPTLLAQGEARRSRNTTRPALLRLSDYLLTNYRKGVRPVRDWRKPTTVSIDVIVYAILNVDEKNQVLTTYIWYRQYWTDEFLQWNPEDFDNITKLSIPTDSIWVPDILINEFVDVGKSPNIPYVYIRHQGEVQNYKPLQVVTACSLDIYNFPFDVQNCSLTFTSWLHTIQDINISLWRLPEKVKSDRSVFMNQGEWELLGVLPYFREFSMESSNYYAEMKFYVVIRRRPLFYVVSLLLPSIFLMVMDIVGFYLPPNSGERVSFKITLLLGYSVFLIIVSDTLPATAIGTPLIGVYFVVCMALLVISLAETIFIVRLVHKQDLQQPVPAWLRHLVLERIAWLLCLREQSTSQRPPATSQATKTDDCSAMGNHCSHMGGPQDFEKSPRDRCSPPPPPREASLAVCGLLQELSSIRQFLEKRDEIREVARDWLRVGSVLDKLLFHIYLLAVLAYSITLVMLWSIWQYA

Glucocorticoid receptor = biological target: T5, Glucocorticoid receptor (Homo sapiens, UniProt P04150)
T5 sequence (P04150 whole entry): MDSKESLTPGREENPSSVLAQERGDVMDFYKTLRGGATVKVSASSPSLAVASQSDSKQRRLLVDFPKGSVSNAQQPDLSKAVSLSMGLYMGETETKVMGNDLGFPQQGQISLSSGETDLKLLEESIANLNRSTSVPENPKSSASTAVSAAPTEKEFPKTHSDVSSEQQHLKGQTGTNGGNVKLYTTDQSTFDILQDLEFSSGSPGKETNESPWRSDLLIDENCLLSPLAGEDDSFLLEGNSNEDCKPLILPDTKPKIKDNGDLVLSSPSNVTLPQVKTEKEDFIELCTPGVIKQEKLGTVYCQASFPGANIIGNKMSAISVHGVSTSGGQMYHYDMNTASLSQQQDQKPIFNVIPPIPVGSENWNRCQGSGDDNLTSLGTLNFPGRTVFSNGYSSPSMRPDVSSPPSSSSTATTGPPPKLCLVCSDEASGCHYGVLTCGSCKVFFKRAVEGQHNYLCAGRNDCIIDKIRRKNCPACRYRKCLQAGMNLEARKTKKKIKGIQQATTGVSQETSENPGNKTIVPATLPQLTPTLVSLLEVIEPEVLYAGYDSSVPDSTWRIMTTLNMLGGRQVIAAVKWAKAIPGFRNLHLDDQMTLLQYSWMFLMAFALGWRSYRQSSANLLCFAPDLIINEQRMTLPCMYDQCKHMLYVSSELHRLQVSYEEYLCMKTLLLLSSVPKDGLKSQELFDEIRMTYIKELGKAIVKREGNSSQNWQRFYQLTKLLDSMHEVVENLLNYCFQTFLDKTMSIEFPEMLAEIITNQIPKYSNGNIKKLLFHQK
Further: assay procedure not described here.

Sequence of Vasopressin V1a receptor (P37288 whole entry): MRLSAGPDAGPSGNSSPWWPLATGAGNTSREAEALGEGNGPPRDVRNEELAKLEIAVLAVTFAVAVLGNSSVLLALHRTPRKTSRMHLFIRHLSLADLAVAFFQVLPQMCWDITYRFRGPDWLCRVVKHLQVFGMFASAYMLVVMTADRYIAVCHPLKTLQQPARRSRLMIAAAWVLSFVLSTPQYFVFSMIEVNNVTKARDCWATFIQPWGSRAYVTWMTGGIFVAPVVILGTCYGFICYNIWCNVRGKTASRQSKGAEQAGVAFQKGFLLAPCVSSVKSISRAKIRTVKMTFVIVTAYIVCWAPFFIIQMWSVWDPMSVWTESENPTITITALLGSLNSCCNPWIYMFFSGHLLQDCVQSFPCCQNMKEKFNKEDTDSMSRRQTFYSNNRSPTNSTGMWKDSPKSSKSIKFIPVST
Sequence of 3',5'-cyclic-AMP phosphodiesterase 4D (Q08499 whole entry): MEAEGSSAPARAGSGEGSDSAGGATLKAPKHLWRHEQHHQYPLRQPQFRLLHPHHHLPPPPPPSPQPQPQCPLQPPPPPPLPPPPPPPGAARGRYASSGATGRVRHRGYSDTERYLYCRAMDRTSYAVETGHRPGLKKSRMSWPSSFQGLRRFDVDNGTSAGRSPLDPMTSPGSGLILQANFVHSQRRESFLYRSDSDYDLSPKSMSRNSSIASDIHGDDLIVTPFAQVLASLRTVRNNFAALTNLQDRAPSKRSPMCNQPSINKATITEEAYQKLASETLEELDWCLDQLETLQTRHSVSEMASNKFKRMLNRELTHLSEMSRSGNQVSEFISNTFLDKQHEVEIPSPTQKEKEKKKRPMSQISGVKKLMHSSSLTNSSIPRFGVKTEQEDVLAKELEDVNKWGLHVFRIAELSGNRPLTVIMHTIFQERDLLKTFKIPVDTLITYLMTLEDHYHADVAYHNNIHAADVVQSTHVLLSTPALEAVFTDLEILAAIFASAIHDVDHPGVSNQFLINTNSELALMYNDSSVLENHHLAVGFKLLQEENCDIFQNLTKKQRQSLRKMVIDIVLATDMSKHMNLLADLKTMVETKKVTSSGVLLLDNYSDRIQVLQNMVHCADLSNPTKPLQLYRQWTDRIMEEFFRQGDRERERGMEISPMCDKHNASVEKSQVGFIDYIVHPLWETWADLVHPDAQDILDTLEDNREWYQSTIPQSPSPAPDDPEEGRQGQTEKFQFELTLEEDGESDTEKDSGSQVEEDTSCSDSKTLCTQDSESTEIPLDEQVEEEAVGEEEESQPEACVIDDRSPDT
Sequence of Beta-2 adrenergic receptor (P07550 whole entry): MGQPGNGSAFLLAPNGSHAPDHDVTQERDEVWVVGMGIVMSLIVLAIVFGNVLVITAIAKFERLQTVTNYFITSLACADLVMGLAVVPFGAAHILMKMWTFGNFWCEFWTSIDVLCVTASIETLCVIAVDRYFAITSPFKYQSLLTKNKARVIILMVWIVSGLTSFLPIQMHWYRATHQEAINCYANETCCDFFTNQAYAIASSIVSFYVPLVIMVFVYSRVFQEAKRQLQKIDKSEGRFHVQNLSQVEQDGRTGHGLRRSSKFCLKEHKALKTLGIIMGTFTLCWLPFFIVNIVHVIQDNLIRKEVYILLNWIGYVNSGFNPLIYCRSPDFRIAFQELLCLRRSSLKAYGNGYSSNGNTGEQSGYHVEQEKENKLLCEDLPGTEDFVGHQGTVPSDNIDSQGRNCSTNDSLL
Sequence of Sodium-dependent serotonin transporter (P31645 whole entry): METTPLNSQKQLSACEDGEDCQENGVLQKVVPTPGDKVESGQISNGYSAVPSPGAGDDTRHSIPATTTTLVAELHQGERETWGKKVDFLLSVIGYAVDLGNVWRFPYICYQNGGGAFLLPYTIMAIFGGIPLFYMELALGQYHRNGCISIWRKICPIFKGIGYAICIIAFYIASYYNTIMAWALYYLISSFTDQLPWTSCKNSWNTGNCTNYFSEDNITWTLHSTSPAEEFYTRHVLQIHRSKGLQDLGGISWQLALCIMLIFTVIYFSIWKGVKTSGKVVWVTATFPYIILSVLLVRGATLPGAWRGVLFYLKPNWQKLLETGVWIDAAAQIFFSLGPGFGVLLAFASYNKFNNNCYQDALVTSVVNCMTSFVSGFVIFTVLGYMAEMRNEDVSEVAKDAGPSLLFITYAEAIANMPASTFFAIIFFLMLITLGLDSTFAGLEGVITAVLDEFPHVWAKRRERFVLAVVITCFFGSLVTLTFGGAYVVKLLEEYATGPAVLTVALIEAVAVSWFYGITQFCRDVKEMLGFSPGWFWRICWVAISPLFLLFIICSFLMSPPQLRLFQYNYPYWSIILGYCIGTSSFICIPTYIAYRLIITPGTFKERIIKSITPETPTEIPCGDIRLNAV

CC(C)(N)Cc1ccc(Cl)cc1 [CHLORPHENTERMINE]
AC50 [1]: 4.57 µM | AC50 [2]: > 10 µM | AC50 [3]: > 30 µM | AC50 [4]: > 10 µM | AC50 [5]: > 30 µM | AC50 (Vasopressin V1a receptor): > 30 µM | AC50 (Adenosine receptor A1): > 30 µM | AC50 [6]: > 30 µM

NS(=O)(=O)c1cc(Cl)c(Cl)c(S(N)(=O)=O)c1 [DICHLORPHENAMIDE]
AC50 [1]: > 10 µM | AC50 (Glucocorticoid receptor): > 10 µM | AC50 [2]: > 10 µM | AC50 [3]: > 30 µM | AC50 [4]: > 10 µM | AC50 [5]: > 30 µM | AC50 (Vasopressin V1a receptor): > 10 µM | AC50 (Adenosine receptor A1): > 10 µM | AC50 [6]: > 30 µM

O=C(Nc1ccccc1)OCC(CN1CCCCC1)OC(=O)Nc1ccccc1 (configuration not stated) [DIPERODON]
AC50 [1]: > 10 µM | AC50 (Glucocorticoid receptor): > 30 µM | AC50 [2]: > 30 µM | AC50 [3]: > 10 µM | AC50 [4]: > 10 µM | AC50 [5]: > 30 µM | AC50 (Vasopressin V1a receptor): > 10 µM | AC50 (Adenosine receptor A1): > 30 µM | AC50 [6]: > 10 µM

C=C1C[C@@H]2[C@H](CC[C@]3(C)C(=O)CC[C@@H]23)[C@@]2(C)C=CC(=O)C=C12 [EXEMESTANE]
AC50 [1]: > 30 µM | AC50 [2]: > 10 µM | AC50 [3]: > 30 µM | AC50 [4]: > 10 µM | AC50 [5]: > 30 µM | AC50 (Vasopressin V1a receptor): > 30 µM | AC50 (Adenosine receptor A1): > 30 µM | AC50 [6]: > 30 µM

CC(C(O)c1ccc(O)cc1)N1CCC(Cc2ccccc2)CC1 (configuration not stated) [IFENPRODIL]
AC50 [1]: 0.28 µM | AC50 (Glucocorticoid receptor): > 30 µM | AC50 [2]: > 30 µM | AC50 [3]: > 30 µM | AC50 [5]: > 30 µM | AC50 (Vasopressin V1a receptor): > 30 µM | AC50 (Adenosine receptor A1): > 30 µM | AC50 [6]: > 30 µM
